Test results published in US9562012B2, “PPAR-sparing compounds for the treatment of metabolic diseases” (Metabolic Solutions Development Company, LLC, priority 2013, dated 2017).
Structures can show the parent of a compound that is named as a salt.

What was measured:
[1] = molecular target: human PPARγ ligand binding domain (LBD) (Homo sapiens (Human), UniProt P37231); experiment: TR-FRET PPARγ competitive binding assay (Invitrogen LanthaScreen)
Experimental: The assays are conducted by first evaluation of the direct interactions of the molecules with the ligand binding domain of PPARγ. […] PPARγ binding is measured by a TR-FRET competitive binding assay using Invitrogen LanthaScreen™ TR-FRET PPARγ Competitive Binding Assay (Invitrogen #4894). This assay uses a terbium-labeled anti-GST antibody to label the GST tagged human PPARγ ligand binding domain (LBD). A fluorescent small molecule pan-PPAR ligand tracer binds to the LBD causing energy transfer from the antibody to the ligand resulting in a high TR-FRET ratio. […] The TR-FRET ratio is determined by reading the fluorescence emission at 490 and 520 nm using a Synergy2 plate reader (BioTek). The ability of compounds of the present invention to bind to PPARγ may also be measured using a commercial binding assay (Invitrogen Corporation, Carlsbad, Calif.) that measures the test compounds ability to bind with PPAR-LBD/Fluormone PPAR Green complex. These assays are performed on three occasions with each assay using duplicate wells at each concentration of tested compound. The data are mean and SEM of the values obtained from the three experiments. […] Compounds were added at the concentrations shown, which ranged from 0.1-100 micromolar.

diabetic KKAy mice = experiment: Glucose, insulin and triglyceride in diabetic KKAy mice; format: in vivo; settings: orally dosed 93 mg/kg for 4 days, T/C normalized to vehicle activity
Experimental: The insulin sensitizing and antidiabetic pharmacology are measured in the KKA^Y mice as previously reported [Hofmann, C., Lomez, K., and Colca, J. R. (1991). Glucose transport deficiency corrected by treatment with the oral anti-hyperglycemic agent Pioglitazone. Endocrinology, 129:1915-1925.]. Compounds are formulated in 1% sodium carboxy methylcellulose, and 0.01% tween 20 and dosed daily by oral gavage. […] Compounds were formulated by suspension and orally dosed to KKA^Y mice at 93 mg/kg for 4 days. The compounds were first dissolved in DMSO and then placed into aqueous suspension containing 7-10% DMSO, 1% sodium methylcarboxycellulose, and 0.01% Tween 20. On the fifth day, the mice were fasted and blood samples were obtained approximately 18 hours after the last dose. The parameters were measured by standard assay methods. Data are mean and SEM N=6-12 mice.

human PPARγ ligand binding domain (LBD), sequence (P37231 238-503): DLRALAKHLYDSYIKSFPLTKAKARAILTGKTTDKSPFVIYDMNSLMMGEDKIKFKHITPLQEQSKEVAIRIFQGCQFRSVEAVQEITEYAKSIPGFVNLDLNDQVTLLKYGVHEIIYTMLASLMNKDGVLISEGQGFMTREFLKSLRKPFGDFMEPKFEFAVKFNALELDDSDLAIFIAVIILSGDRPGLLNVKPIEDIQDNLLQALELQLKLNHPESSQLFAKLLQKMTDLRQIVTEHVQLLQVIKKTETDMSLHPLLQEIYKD

IC50 [1] [µM]	Structure (SMILES)	Gluclose (mean T/C) (diabetic KKAy mice)
58.9	CCO[C@@H](Cc1ccc(OCc2ccccn2)cc1)C(=O)NO [Compound 1, (2S)-2-ethoxy-N-hydroxy-3-[4-(pyridin-2-ylmethoxy)phenyl]propanamide hydrogen chloride]	
> 100	CCO[C@H](Cc1ccc(OC[C@@H](O)c2cccc(OC)c2)cc1)C(=O)NO [Compound 2, (2R)-2-ethoxy-N-hydroxy-3-{4-[(2S)-2-hydroxy-2-(3-methoxyphenyl)ethoxy]phenyl}propanamide]	
> 250	CCO[C@@H](Cc1ccc(OCc2cc(OC)ccn2)cc1)C(=O)NO [Compound 3, (2S)-2-ethoxy-N-hydroxy-3-{4-[(4-methoxypyridin-2-yl)methoxy]phenyl}propanamide hydrochloride]	
27.7	CCO[C@@H](Cc1ccc(OCc2cc(OC)ccn2)cc1)C(=O)N(C)OC [Compound 4, (2S)-2-ethoxy-N-methoxy-3-{4-[(4-methoxypyridin-2-yl)methoxy]phenyl}-N-methylpropanamide]	
> 250	CCO[C@@H](Cc1ccc(OCc2cc(OC)ccn2)cc1)C(=O)NOC.Cl [Compound 5, (2S)-2-ethoxy-N-methoxy-3-{4-[(4-methoxypyridin-2-yl)methoxy]phenyl}propanamide hydrochloride]	0.97
> 195	CCO[C@@H](Cc1ccc(OCc2cc(OC)ccn2)cc1)C(=O)N(C)O.Cl [Compound 6, (2S)-2-ethoxy-N-hydroxy-3-{4-[(4-methoxypyridin-2-yl)methoxy]phenyl}-N-methylpropanamide hydrochloride]	0.55
11.8	CCO[C@@H](Cc1ccc(OCc2cccc(I)c2)cc1)C(=O)NO [Compound 7, (2S)-2-ethoxy-N-hydroxy-3-{4-[(3-iodobenzyl)oxy]phenyl}propanamide]	
98.5	CCO[C@H](Cc1ccc(OCC(=O)c2cccc(OC)c2)cc1)C(=O)NOC [Compound 8, (2R)-2-ethoxy-N-methoxy-3-{4-[2-(3-methoxyphenyl)-2-oxoethoxy]phenyl}propanamide]	
> 250	CCO[C@@H](Cc1ccc(OCc2ccc(S(C)(=O)=O)cc2)cc1)C(=O)NOC [Compound 9, (2S)-2-ethoxy-N-methoxy-3-(4-{[4-(methylsulfonyl)benzyl]oxy}phenyl) propanamide]	
7.9	CCO[C@@H](Cc1ccc(OCCc2ccc(OS(C)(=O)=O)cc2)cc1)C(=O)NOC [Compound 10]	
30.5	CCO[C@H](Cc1ccc(OCC(=O)c2cccc(OC)c2)cc1)C(=O)N(C)OC [Compound 11, (2R)-2-ethoxy-N-methoxy-3-{4-[2-(3-methoxyphenyl)-2-oxoethoxy]phenyl}-N-methylpropanamide]	
164	CCO[C@@H](Cc1ccc(OC[C@@H](O)c2cccc(OC)c2)cc1)C(=O)NOC [Compound 12, (2S)-2-ethoxy-3-{4-[(2S)-2-hydroxy-2-(3-methoxyphenyl)ethoxy]phenyl}-N-methoxypropanamide]	0.49
61.4	CCO[C@@H](Cc1ccc(OCC(=O)c2cccc(OC)c2)cc1)C(=O)NOC [Compound 13, (2S)-2-ethoxy-N-methoxy-3-{4-[2-(3-methoxyphenyl)-2-oxoethoxy]phenyl}Propanamide]	0.59
> 250	CCO[C@@H](Cc1ccc(OCC(=O)c2cccc(OC)c2)cc1)C(=O)N(C)OC [Compound 14, (2S)-2-ethoxy-N-methoxy-3-{4-[2-(3-methoxyphenyl)-2-oxoethoxy]phenyl}-N-methylpropanamide]	0.76
> 200	CCO[C@@H](Cc1ccc(OC[C@H](O)c2cccc(OC)c2)cc1)C(=O)NOC [Compound 15, (2S)-2-ethoxy-3-{4-[(2R)-2-hydroxy-2-(3-methoxyphenyl)ethoxy]phenyl}-N-methoxypropanamide]	
191	CCO[C@@H](Cc1ccc(OC[C@H](O)c2cccc(OC)c2)cc1)C(=O)N(C)OC [Compound 16, (2S)-2-Ethoxy-3-{4-[(2R)-2-hydroxy-2-(3-methoxyphenyl)ethoxy]phenyl}-N-methoxy-N-methylpropanamide]	
27.7	CCO[C@@H](Cc1ccc(OC[C@@H](O)c2cccc(OC)c2)cc1)C(=O)N(C)OC [Compound 17]	
> 250	CCO[C@H](Cc1ccc(OC[C@@H](O)c2cccc(OC)c2)cc1)C(=O)NOC [Compound 18, (2R)-2-ethoxy-3-{4-[(2S)-2-hydroxy-2-(3-methoxyphenyl)ethoxy]phenyl}-N-methoxypropanamide]	
> 250	CCO[C@H](Cc1ccc(OC[C@H](O)c2cccc(OC)c2)cc1)C(=O)NOC [Compound 19, (2R)-2-ethoxy-3-{4-[(2R)-2-hydroxy-2-(3-methoxyphenyl)ethoxy]phenyl}-N-methoxypropanamide]	
10.9	CCO[C@@H](Cc1ccc(OCCc2ccc(OS(C)(=O)=O)cc2)cc1)C(=O)N(C)O [Compound 20]	
3.7	CCO[C@@H](Cc1ccc(OCCc2ccc(OS(C)(=O)=O)cc2)cc1)C(=O)N(C)OC [Compound 21]	
